The text below walks through data of patent publication EP1671630A2, “L-Arginine based formulations for treating diseases and methods of using the same” (Angiogenix, Inc., priority 1999, dated 2000).

Like-named read-outs stand apart in the source and are kept apart here.

One data set has as its system Bovine aortic EC. Nature of the data set: LA transport after exposure to homocysteine and its thiolactone. It counts as cell-based. The source says: A third aspect of the present invention is the treatment, prevention, or amelioration of homocysteinemia with L-arginine alone. Hyperhomocysteinemia is associated with vascular EC dysfunction and increased risk for atherosclerosis and atherothrombosis. Free radical formation during homocyst(e)ine auto-oxidation has been implicated in its vascular toxicity. Long-term EC exposure to homocyst(e)ine limits nitric oxide synthase (NOS) activity, increasing EC vulnerability to oxidative injury (Stamler et al., 1993). To see whether these effects could be due to alterations in cellular availability of the NOS substrate LA, we tested the effects on LA transport of D,L-homocysteine (DLH) and an auto-oxidation product, L-homocysteine thiolactone (LHT). Bovine aortic EC were exposed to DLH and LHT (1.1-5 mM) for 6 and 24 hours and then incubated with […] [^3H]-LA for 1 min. Cells were washed with ice cold buffer, lysed in 0.5% SDS in 0.1 N NaOH and radioactivity was determined. DLH increased LA uptake in a concentration dependent manner at 6 hr. […] However, after 24 hr. exposure LA uptake was decreased (25-40%).

Data set [1] concerns bovine aortic endothelial cells (BAEC). Nature of the data set: Cellular superoxide anion formation (SOD-inhibitable reduction of ferricytochrome C). It counts as cell-based. The settings on record: for inhibition of O2^•- production induced by A-23187: 5 × 10^-4M, A-23187 1 µM; for inhibition at 500 µM: Bos taurus, BAEC. As for the experimental part: Cellular superoxide anion formation in the presence of NOS agonists. […] After reaching confluency, cells were washed 3 times (3 ml) with Dulbecco's phosphate buffered saline (DPBS) and 2 coverslips were placed in a disposable plastic cuvette facing each other. DPBS (1.8 ml) was gently placed in cuvette in addition to ferricytochrome C (final concentration, 50 µmol/L). […] Change in absorbance over time was determined and the amount of superoxide anion [ε=[…]] generated was determined over time and reported as pmoles O2^•-/min./10^6 cells.

For another data set, the system named is y^+ transporter. Nature of the data set: Cellular uptake of [3H]-L-arginine via y+ transport in the presence of NOS agonists and NO donors. It counts as cell-based, bovine. The settings on record: for increase of [^3H]-LA uptake / increase of LA uptake: Ach 5 µM; for maximum inhibition of LA transport: Fig. 8; for inhibition of LA transport: data not shown. As for the experimental part: Characterization of L-arginine transport system in bovine aortic endothelial cells. […] Prior to experiments, cells were split 1:4, transferred into 24 well plates, and allowed to grow to confluency. […] CaCl2, 1.8 mM; KCl 5.4 mM, choline 140 mM; […] Uptake of LA was terminated by addition of ice cold buffer and cells were washed three times with 1 ml of buffer. […] Cellular uptake of LA via B^α+ system was determined by substituting sodium chloride for choline and incubating as described above. The difference in uptake determined for both transporters and that observed for y+ alone represented the amount of LA uptake contributed by sodium-dependent B^α+ system. […] It has been previously reported that passive, non-saturable diffusion of LA can occur but only when extracellular levels of LA are within the millimolar concentration. […] Uptake of LA was terminated and total cellular transport of LA determined as described above.

Data set [2] concerns the target T1, nitric oxide synthase (NOS) (Bos taurus, UniProt P29473).
T1 construct: DOX activity as a NOS agonist was investigated in cultured bovine aortic EC; endogenous in cells; host or cells: cultured bovine aortic endothelial cells
Kind of data set: NO production in cultured endothelial cells (oxyhemoglobin to methemoglobin conversion and NO sensitive electrode). In kind it is cell-based, bovine. The source says:
Doxazosin, a selective alpha-1 blocker, is pharmacologically similar to prazosin and terazosin. It has been shown that selective alpha-1 blockers lower total and LDL cholesterol. Thus, these selective alpha-1 blockers may be useful in treating both hypertension and hypercholesterolemia. […] In fact, a wide variety of vasoactive agents (e.g. bradykinin, muscarinic agonists and growth factors) which increase tPA levels are also agonists of nitric oxide synthase (NOS). DOX activity as a NOS agonist was investigated in cultured bovine aortic EC using two methods to assess NO production: conversion of oxyhemoglobin to methamoglobin and a NO sensitive electrode. […] This increase in NO to DOX (10^-6 M) was blocked by 72% by prior administration of the NOS inhibitor, L-NAME (5 x 10^-4 M). In addition, the NO responses were accentuated by the presence of supplemental L-arginine (5 x 10^-4 M) by 65%. […] This increase in NO to ACH (10^-6 M) was blocked by 86% by prior administration of L-NAME. In addition, the NO responses were accentuated by 72% in the presence of supplemental L-arginine. DOX, therefore, appears to be a NOS agonist in EC.
For all experiments, human coronary artery endothelial cells (passage 3-5 - Clonetics) were maintained at 37°, […] and 5% CO2 in Medium 199 (M199) supplemented with 5% fetal bovine serum (FBS, Hyclone), 10% iron supplemented FBS (Hyclone), thymidine (100mg mL^-1), penicillin G (100U mL^-1) and streptomycin (100µg mL^-1).
In all experiments, the effects of pretreatment with L-NAME (10^-3 M) in blocking the actions of DOX, and excess L-arginine (10^-3 M) in reversing any L-NAME effect was examined. Acetylcholine, an eNOS agonist, was used in all experiments as the positive control at concentrations of 10^-7 and 10^-6 M.
Methemoglobin - The effect of DOX on NO production in EC was determined using a photometric assay for conversion of oxyhemoglobin to methemoglobin. For this assay, EC grown to confluency on microcarrier beads are placed into a water-jacketed chromatography column and superfused with a Kreb's-Ringer buffer containing 3 µM oxyhemoglobin and 50 µM LA (L-arginine). Perfusate is then directed into a flow-through cuvette in a dual wavelength spectrophotometer and change in absorbancy (415/405 nm) is measured. Experimental stimulation was carried out by 3 min infusion periods of DOX added to buffer perfusion to yield final concentrations of 10^-7 and 10^-6 M. For analysis, we determined the area under the curve for the change in absorbancy response/min caused by DOX assuming a one to one correspondence for NO and metHb production, the known stoichiometric balance for this reaction. No electrode - NO production was measured with a NO meter connected to a polargraphic NO electrode as previously described. The NO sensor probe will be inserted vertically into 24-well plates containing confluent EC such that the tip of the electrode is submerged 2 mm under the surface of medium (above - 1ml). The reaction was initiated when desired concentrations of DOX are added to the well. Calibrations were performed with S-nitroso-acetyl-penicillamine.

The conditions of data set [3]: cited from earlier work.
Where [4] appears, read: read-out: reduced O2· induced by SP.

On to `NC(CCS)C(=O)O` (racemic) [DLH, D,L-homocysteine], for which the LA uptake decreased with Bovine aortic EC (24 hr. exposure, 1.1-5 mM) is given as 25-40%. For the same compound, the activation at 5000 µM in the data set on Bovine aortic EC (Bos taurus, 5 mM, 6 hr exposure, read-out: maximum increase of LA uptake) was found to be 53%.
As to `CNc1ccc2oc(C[C@H]3O[C@@]4(CC[C@H]3C)O[C@H]([C@H](C)C(=O)c3ccc[nH]3)[C@H](C)C[C@H]4C)nc2c1C(=O)O` [A-23187], the “increased O2· production above basal levels” value in data set [1] was 2.5 fold.
Turning to `CC(=O)OCC[N+](C)(C)C` [Acetylcholine, acetylcholine], the “increase of [^3H]-LA uptake” value in the data set on y^+ transporter (2 minute exposure) stood at 22%; in the data set with y^+ transporter (15 minute (maximum)) it was 27%. Besides, the “increase of LA uptake” value in the data set with y^+ transporter (30 minutes) was 16%; in the data set with y^+ transporter (60 minutes), 15.5%.
As to `COc1cc2nc(N3CCN(C(=O)C4COc5ccccc5O4)CC3)nc(N)c2cc1OC` (stereo not shown) [DOX, Doxazosin], the “dose-related increase in NO production” value in data set [2] (DOX 10^-7 - 10^-5 M, cultured bovine aortic EC) is given as 64-145%.
For the compound `NCCCN(CCCN)/[N+]([O-])=N/O` [DPTA-NONOate, dipropylenetriamine NONOate], the “maximum inhibition of LA transport” value with y^+ transporter (0.01 µM DPTA, 2 hour exposure) worked out at 20%; with y^+ transporter (1 µM DPTA, 2 hour exposure) it was 24%; with y^+ transporter (10 µM DPTA, 2 hour exposure), 44%. Also, the “effect on y^+ system” value in the data set on y^+ transporter (1 µM DPTA-NONOate (2 µM NO), 15 and 30 min) was “no significant effect”. The “inhibition of LA transport” value in the data set on y^+ transporter (1 µM DPTA-NONOate (2 µM NO), 1 hour exposure) turned out to be 22%; in the data set on y^+ transporter (1 µM DPTA-NONOate (2 µM NO), 2 hour exposure) it was 24%; in the data set with y^+ transporter (1 µM DPTA-NONOate (2 µM NO), 4 hour exposure), 29%.
In the case of `COC(=O)[C@@H](N)CCCN=C(N)N[N+](=O)[O-]` [L-NAME, n-ω-nitro-L-arginine methyl ester], the “increase in NO blocked by prior administration of L-NAME” value in data set [2] (NO response to ACH 10^-6 M) was determined as 86%. The inhibition at 500 µM in data set [2] (read-out: increase in NO blocked by prior administration of L-NAME) was 72%; in data set [1] (1 h, read-out: prevented basal production of O2^•-), 100%; in data set [1] (setting [4]) it was 81%. Moreover, the “inhibition of O2^•- production induced by A-23187” value in data set [1] turned out to be 58%.
Regarding `N=C(N)NCCC[C@H](N)C(=O)O` [L-arginine], in data set [2] (NO responses to DOX, L-arginine 5 x 10^-4 M), the “NO responses accentuated by supplemental L-arginine” value is 65%. In addition, the “NO responses accentuated in the presence of supplemental L-arginine” value in data set [2] (NO responses to acetylcholine) was 72%. For the same compound, the “inhibition of O2^•- production induced by A-23187” value in data set [1] is 60%. In addition, the inhibition at 500 µM in data set [1] (setting [4]) was 51%. The “prevention of basal production of O2^•-” value in data set [1] (LA 5 x 10^-4M, basal) is on record as “not”.
Regarding `N[C@H]1CCSC1=O` [LHT, L-homocysteine thiolactone], the LA transport entry in the data set on Bovine aortic EC (after 6 and 24 hrs exposure, 1.1-5 mM) was “dose-related decrease”.
Regarding `CC(=O)N[C@H](C(=O)O)C(C)(C)SN=O` [SNAP, S-nitroso-acetyl-penicillamine], in the data set on y^+ transporter (200 µM SNAP (0.4 µM NO), ten minutes of exposure), the “increased activity of the Y^+ transporter” value is reported as 37%. Besides, the “elevation of Y^+ transporter activity” value in the data set with y^+ transporter (200 µM SNAP, 30 minute exposure) is “not seen”. Besides, the “uptake of [^3H]-LA reduced” value in the data set on y^+ transporter (200 µM SNAP, 1 hour) is listed as 22%. Also, the “reduction of uptake of [^3H]-LA” value was found to be 46% with y^+ transporter (200 µM SNAP, 2 hour exposure); 45% with y^+ transporter (200 µM SNAP, 3 hour exposure); 36% with y^+ transporter (200 µM SNAP, 5 hour exposure). For the same compound, the “t1/2 of NO donation” value in data set [3] is recorded as ~ 10 minutes.
For the compound `CSCC[C@H](NC(=O)[C@H](CC(C)C)NC(=O)CNC(=O)[C@H](Cc1ccccc1)NC(=O)[C@H](Cc1ccccc1)NC(=O)[C@H](CCC(N)=O)NC(=O)[C@H](CCC(N)=O)NC(=O)[C@@H]1CCCN1C(=O)[C@H](CCCCN)NC(=O)[C@@H]1CCCN1C(=O)[C@@H](N)CCCNC(=N)N)C(N)=O` [SP, substance P], the “increase of y^+ transport of LA into cells” value was 24% in the data set on y^+ transporter (SP 1µM, 15 minutes exposure); 24% in the data set on y^+ transporter (SP 1µM, 30 minutes); 21% in the data set with y^+ transporter (SP 1µM, 60 minutes). Also, in the data set with y^+ transporter (SP 1µM, 2 hour exposure), the “y^+ transporter activity enhanced from control values” is listed as not above 34%. Besides, the “cellular LA increase” value stood at 27% in the data set with y^+ transporter (SP 1µM, 3 hour exposure) and 21% with y^+ transporter (SP 1µM, 5 hour exposure). The “increased O2· production above basal levels” value in data set [1] (1 µM, 60 minute period) is reported as 3.5 fold.
As to “bradykinin (RPPGFSPFR; Bradykinin; UniProt P01042 381-389, looked up) [BK]”, the “increase of cellular transport of LA” value in the data set with y^+ transporter (BK 1αM, 15 minute exposure (maximum)) came to 42%; with y^+ transporter (BK 1αM, 30 minutes), 39%; in the data set on y^+ transporter (BK 1αM, 60 minutes), 16%. In addition, in the data set on y^+ transporter (BK 1αM, 2 hour exposure), the “enhanced cellular uptake of LA” value is 38%. Besides, the “increase in transport of LA” value is reported as 19% in the data set with y^+ transporter (BK 1αM, 3 hour exposure) and 22% with y^+ transporter (BK 1αM, 5 hour exposure).
